Source: article PMC5503984, “Characterisation of preproendothelin-1 derived peptides identifies Endothelin-Like Domain Peptide as a modulator of Endothelin-1” (Scientific Reports, 2017)
Each block holds one compound with its values, some of them ahead of it. Where no end group is shown, it is not given here.

Experiments:
[1] = system: human aortic endothelial cells; assay: Secretion of ET-1 and proET-1 peptides from cultured human aortic endothelial cells (sandwich ELISA); format: cell-based; conditions: 6 h incubation
Source text: To confirm that proET-1 peptides are a reproducible index of ET-1 synthesis we compared the level of peptide production in cultured human aortic endothelial cells under conditions known to increase or decrease ET-1 expression. These experiments also confirmed that early passage human endothelial cells from primary cultures produce the same peptides with the stoichiometric relationship expected for proET-1 processing.
Figure 3 Correlation between secretion of ET-1 and proET-1 peptides from human aortic endothelial cells. Confluent cultures were incubated for 6 h in basal medium alone, or with 1 mM phosphoramidon (PHA), 2.5 or 5 µg/ml apple procyanidin pentamer (AP-2.5, AP-5), 5 µg/ml grape seed extract (GSE), 10 ng/ml TNFα or 1 ng/ml TGFß. All peptides were measured using specific sandwich ELISAs, and converted to % basal release (A,B,C,E and G). Results are mean ± SD from 4 experiments. Significant differences were determined by ANOVA with Bonferroni correction for multiple comparisons (*P = < 0.05; ***P = < 0.001). (D,F) and (H) show correlations between secretion of ET-1 and the respective proET-1 peptides under the different incubation conditions (excluding data obtained with phosporamidon).
Underlined sequences in Table 1 indicate peptide antigens used to raise specific antisera for sandwich immunoassays following previously described methodologies. Immunogens for ppET-1[93–109] and ppET-1[155–166] were prepared by conjugation via terminal Cys residues to maleimide groups on pre-treated carrier proteins. To enable conjugation of ppET-1[18–30], ppET-1[93–102] and ppET-1[169–186] by the maleimide methodology, synthetic peptides for these antigens included a C-terminal Cys-NH2 residue. Immunogens for ppET-1[42–50] and ppET-1[204–212] were prepared by glutaraldehyde conjugation to carrier protein[30]. For initial characterisation of conditioned media samples, rabbit antisera raised against ppET-1[42–50] and ppET-1[93–102] were used to establish radioimmunoassays for these peptide antigens. Subsequent investigations used sandwich ELISA methodologies with specific IgG purified from antisera using the respective peptide antigens (Table 1) coupled to SulfoLink Coupling Resin (Thermo Scientific/Pierce) or CNBr-Sepharose (GE Healthcare)[30]. Purified IgG for use as detection antibodies were biotinylated with NHS-LC-LC-biotin (Thermo Scientific/Pierce), and used for assay measurements with enhanced chemiluminescence.
EA.hy 926 and A549 cell lines were grown in Dulbecco’s modified Eagle medium with 10% fetal bovine serum at 37 °C in a humidified CO2 incubator (8% CO2, 92% air) as previously described, [30]. Human aortic endothelial cells were passaged cells from primary cultures grown in endothelial cell basal medium with growth supplement (Cell Applications Inc.), and used when confluent to compare secretion of proET-1 peptides with ET-1. Purified apple procyanidin pentamer was from Asahi Breweries (Moriya, Ibaraki 302–0106, Japan), grape seed extract was form Polyphenolics (Madera, CA), TNFα and TGFβ were from R&D Systems.

[2] = Clearance of proET-1 peptides after i.v. bolus in anaesthetised rats; format: in vivo, rat; conditions: rat; for plasma level at 30 s as % of administered peptide, relative to estimates for dilution in circulating blood: 1 nmol/kg i.v., hypothetical maximum plasma concentration 23–35 pmol/ml; for level at time molar at 0.5 min: iv, anaesthetised male Wistar rats, bolus 1 nmol/kg i.v. of each peptide as a combined solution in 0.9% saline/0.1% BSA, arterial plasma, Luminex multiplex immunoassay, mean ± SD, read-out: plasma level 30 s after injection
Procedure: To examine whether circulating half-lives influenced plasma levels of proET-1 peptides clearance rates were investigated in anaesthetised rats. […] Based on a circulating blood volume of 7.2 ± 0.3 ml per 100 g body weight, a mean weight of 345 ± 6 g and hematocrit of 40–60%, the hypothetical maximum plasma concentrations were 23–35 pmol/ml. However, the levels of NT-proET-1, ELDP and CT-proET-1 30 s after injection were 0.29 ± 0.02, 3.65 ± 0.23, and 11.74 ± 0.64 pmol/ml, respectively. Relative to estimates for dilution in circulating blood, these values represent ≈1%, 10–16%, and 34–51% of administered peptide for NT-proET-1, ELDP and CT-proET-1. Moreover, NT-proET-1 was almost completely cleared from the circulation in <5 min (estimated initial t½ < 20 s).
Figure 5 Comparison of clearance rates of NT-proET-1, ELDP and CT-proET-1 in anaesthetised rats. A bolus dose containing 1 nmol/kg of each proET-1 peptide as a combined solution prepared in 0.9% saline/0.1% BSA was administered i.v. and heparinised arterial blood samples (0.5 ml) were collected at 0.5, 1, 2, 5, 10, 20 and 40 min after administration of proET-1 peptides. NT-proET-1 (mauve circles), ELDP (red circles) and CT-proET-1 (blue circles) were measured by magnetic bead-based multiplex assays using Luminex methodology (values are mean ± SD, except where SD is less than the symbol size).
A multiplexed immunoassay system was used for simultaneous measurement of NT-proET-1, ELDP and CT-proET-1 in small volumes of rat plasma. Capture antibodies were conjugated to magnetic beads (region 45 – NT-proET-1, region 36 – ELDP, and region 27 – CT-proET-1) following standard protocols (Luminex Corporation). For assay capture antibody-coated magnetic beads were diluted as a premixed combination (10 µl/well) and incubated overnight at 4 °C on an orbital plate mixer with plasma (15 µl) and assay buffer (135 µl). For detection, beads were washed using a ring magnet plate washer before adding 25 µl of combined biotinylated detection antibodies and incubating for 2 h at room temperature on an orbital plate mixer.
All experiments were conducted according to the Animals (Scientific Procedures) Act 1986, UK, and approved by the UK Home Office. Clearance rates of proET-1 peptides and blood pressure effects of ELDP were determined in male Wistar rats (Charles River) anaesthetised with sodium thiopentone (120 mg/kg i.p.). Peptides were administered i.v. via a polyethylene catheter in the left femoral vein. Blood samples (0.5 ml) were collected from a catheter in the left carotid artery into chilled 1.5 ml microcentrifuge tubes containing 50 U/5 µl of heparin. Samples were centrifuged at 12,000 rpm for 2 min at 4 °C. Plasma (50 µl aliquots) samples were stored at −80 °C for subsequent analyses. Blood pressure and heart rate were recorded from the left carotid artery via a polyethylene catheter using Labchart 7.1 (AD Instruments Ltd).

[3] = ET-1; cited from earlier work
Source text: After intravenous injection NT-proET-1 was rapidly eliminated from the circulation (t½ < 20 s). Such rapid clearance indicates uptake or metabolism. ET-1 also has a short t½ (30–60 s)[42], [43], which is due primarily to clearance by endothelial ETB receptors in the pulmonary vasculature, [45], and to a lesser extent degradation by neutral endopeptidase 24.11, particularly in post capillary veins, [47]. In the absence of receptor-mediated clearance, the high disappearance rate of NT-proET-1 is likely due to peptidase activity in the circulation, particularly in the pulmonary circulatio ...

[4] = RP-HPLC elution position of synthetic proET-1 peptides; format: physicochemical; conditions: ACE-5 C4 300 Å, 5 µm, 4.6 × 250 mm, 1 ml/min, 0.1% TFA – 10% solvent B (80% CH3CN with 0.1% TFA) over 2 min, then 10–30% B over 50 min, 1 min fractions, absorbance at 280 nm and immunoassay
Procedure: Figure 2 Size exclusion chromatography of peptide precipitates from (A) EA.hy 926 and (B) A549 cell lines, (C) cation exchange chromatography of conditioned media from EA.hy 926, and HPLC characterisation of pro-ET-1 peptides from EA.hy 926 cells – (D) NT-proET-1, (E) ELDP and (F) CT-proET-1. (A) and (B) proendothelin-1 peptides from EA.hy 926 and A549 cell lines were subjected to size exclusion chromatography (column 1.6 × 100 cm, Sephadex G50 superfine) equilibrated at 4 °C with 0.1 M NaCl containing 0.01 M HCl. Fractions were subjected to immunoassay for ppET-1[42–50] (open circles) and ppET-1[93–102] (closed circles). Elution positions of adrenomedullin (ADM, M r 6029), big ET-1 (bET-1, M r 4283) and ET-1 (M r 2492) are indicated. […] ELDP (red columns) and CT-proET-1 (blue columns) were measured using immunoassays. […]
ProET-1 peptides were subjected to reverse phase HPLC on C4 silica (15 µm, 300 Å pore, 1 × 25 cm; Jupiter® Phenomenex) with gradient elution at 2 ml/min: 0.1% TFA – 15% solvent B (80% CH3CN with 0.1% TFA) over 2 min, followed by 15–60% B over 45 min. […] Synthetic peptides were used to characterise elution positions of NT-proET-1, ELDP and CT-proET-1 on this second HPLC system by monitoring absorbance at 280 nm and immunoassay of fractions. […]

[5] = cited from earlier work
Source text: The endothelin-like domain sequence is highly conserved with the first four Cys residues having identical spacing to ET-1 (Fig. 6)[18], [19]. There is also considerable sequence homology adjacent to the endothelin-like domain, which has been retained throughout mammalian evolution, such that human ppET-1[107–131] has 92% sequence identity with mouse ELDP and 88% with platypus over this sequence. […] However, choice of test conditions and pepti ...

[6] = 1 mM phosphoramidon, 4 experiments
[7] = 1 nmol/kg i.v. bolus, plasma sampled 0.5–40 min, two-phase clearance

Compound: CC(C)C[C@H](NP(=O)(O)O[C@@H]1O[C@@H](C)[C@H](O)[C@@H](O)[C@H]1O)C(=O)N[C@@H](Cc1c[nH]c2ccccc12)C(=O)O [phosphoramidon]
ET-1 synthesis [1, 6]: suppressed
proET-1 peptide production (NT-proET-1, ELDP, CT-proET-1) [1, 6]: no effect
increase in big ET-1 compared to basal ([1]; 1 mM phosphoramidon, confluent human aortic endothelial cells, mean ± SD from 4 experiments): 14.9 ± 2.8 fold

time to almost complete clearance from the circulation ([2]; 1 nmol/kg i.v. bolus): < 5 min
estimated initial t½ ([2]; 1 nmol/kg i.v. bolus, plasma): < 20 s
plasma level at 30 s as % of administered peptide, relative to estimates for dilution in circulating blood [2]: ≈ 1%
level at time molar at 0.5 min [2]: 0.29 ± 0.02 nM
Compound: APETAVLGAELSAVGENGGEKPTPSPPWRLRRS [NT-proET-1]

Compound: Apple procyanidin pentamer
synthesis/secretion of all peptides (ET-1, big ET-1 and proET-1 peptides) ([1]; apple procyanidin pentamer 2.5 or 5 µg/ml, grape seed extract 5 µg/ml, TGFß 1 ng/ml, % basal release, 4 experiments): reduced

Compound: Endothelin-1 [ET-1]
t½ in the circulation [3]: 30 to 60 s

elution position on RP-HPLC (fraction number) [4]: 28 fraction
estimated t½, phase 1 [2, 7]: 42 s
estimated t½, phase 2 [2, 7]: 438 s
plasma level at 30 s as % of administered peptide, relative to estimates for dilution in circulating blood [2]: 34–51%
level at time molar at 0.5 min [2]: 11.7 ± 0.64 nM
Compound: SSEEHLRQTRSETMRNSVKSSFHDPKLKGKPSRERYVTHNRAHW [CT-proET-1]

Compound: TNFα
ET-1 and ELDP in conditioned media ([1]; TNFα 10 ng/ml, 4 experiments): did not change
big ET-1 concentrations ([1]; TNFα 10 ng/ml, 4 experiments): increased
levels of NT-proET-1 and CT-proET-1 in conditioned media ([1]; TNFα 10 ng/ml, 4 experiments): significantly increased

Compound: ppET-1[110–130]: preproendothelin [110–130] fragment tested in an earlier study (QCASQKDKKCWNFCQAGKELR; UniProt P05305 110-130, looked up, fragment)
cardiovascular effects [5]: failed to show any cardiovascular effects
